The text below walks through data of patent US11957766B2, “HNQO1-activatable fluorescent probe for imaging cancer cells in-vitro and in-vivo” (Texas Tech University System, priority 2019, dated 2024).

Data set [1] has as its system A549 and NCI-H460 cancer cells, IMR 90 and HUVECs normal cells. Briefly: Cytotoxicity of NIR-ASM, resazurin reduction assay. It is filed as cell-based, human. To be noted: up to 100 μM, 72 h. As to the method: Assessment of NIR-ASM biocompatibility. Inspired by the excellent photophysical properties of NIR-ASM in monitoring the NQO1 activity in vitro, the inventors determined the biocompatibility of NIR-ASM both in vitro and in vivo before using for endogenous applications. […] Further, to evaluate NIR-ASM tolerability and toxicity in vivo, CD1 mice were grouped for the administration of vehicle (PEG:H2O:EtOH) alone or 5 mg/kg of NIR-ASM five times a week for five weeks. The average mouse weights were monitored as a surrogate marker to the toxicity.
Cell viability assays. NIR-ASM was evaluated for in vitro cytotoxicity in human cancer (A549 and H460) and normal (IMR90 and HUVECs) cell lines following a protocol of 72 h continuous drug exposure using resazurin reduction assay. The cell lines were grown in 96-well microtiter plates at a density of 5000 cells per well. The plates were incubated for 24 h prior to addition of NIR-ASM. Ten concentrations of NIR-ASM were evaluated in quadruplicate sets. Plates were incubated for a further 72 h and replaced with 20 μL resazurin 0.01% (w/v) containing the medium. After 2 h, the fluorescence was measured using a Tecan Reader (Infinite m200 Pro) at a 544 nm excitation and 590 nm emission.

Data set [2] concerns the target T1, NQO1 (Homo sapiens, UniProt P15559). Briefly: Fluorescent response of NIR-ASM towards NQO1. It is filed as biochemical. Set-up: purchased Sigma-Aldrich D1515. As to the method: Fluorescent response of NIR-ASM towards NQO1. To unequivocally establish that NIR-ASM is a highly specific sensor for NQO1, the inventors first investigated its spectral properties were systematically studied in simulated physiological conditions 0.1% BSA containing PBS, BSA used as a stabilizing agent, pH 7.4) at 37° C., and the results are given in FIGS. 9D and 9E. […] However, upon addition of NQO1, the absorption at 403 nm disappears and a prominent absorption at 465 nm emerges; Along with the bathochromic shift of UV/Vis absorption, a distinct color change from yellow to red was observed after 30 min of incubation with NQO1. […] However, the reaction of the probe with NQO1 produced a strong fluorescence emission band at 646 nm with a large Stokes shift ([…]) (FIG. 9F), which is highly advantageous for bioimaging analysis, because of non-overlapping excitation and emission wavelengths. Next, the fluorescence response of NIR-ASM to NQO1 at varying concentrations (0-2.5 μg/mL) was studied. […] Also, the fluorescence enhancement was directly proportional to the enzyme concentration in the range of 0.125-2.5 μg/mL (R^2=0.9919, FIG. 9G). The NQO1 detection limit (LOD) of NIR-ASM was calculated to be as low as 0.191 μg/mL, based on the standard deviation of the response (Sy) and the slope of the calibration curve (S) according to the formula: LOD=3.3(Sy/S).
Spectroscopic measurements. NIR-ASM was dissolved with DMSO to prepare a stock solution, which was then diluted with enzyme reaction buffer (PBS containing 2.5 μg/mL, 100 μM NADH and 0.1% BSA) to prepare different concentrations of the probe for UV/Vis and fluorescence measurement. Time-dependent fluorescence intensity changes for different concentrations of NIR-ASM in the presence of NQO1 (2.5 μg/mL) and 100 μM NADH were measured using Clear bottom 96 well black plate and microplate reader. Fluorescence (ex. 460 nm and em. 646 nm) was quantitated every minute for 90 min with 20 seconds of shaking in between intervals.

The target of data set [3] is T1, NQO1. The data set is described as follows: Selectivity of NIR-ASM for NQO1 over other enzymes/substrates. It is filed as biochemical. Details: purchased Sigma-Aldrich D1515. The note with it: 30 min; GSH, ALDH1A1, GGT, GPx, APE1, CBS, CTSL, GST-pi, NADH, NTR. From the text: Selectivity of NIR-ASM. The selectivity of NIR-ASM probe was studied by examining its reactivity towards various biomolecules and antioxidant enzymes such as the glutathione, aldehyde dehydrogenase 1, gamma-glutamyl transferase, glutathione peroxidase, apurinic/apyrimidinic endonuclease, cystathionine-β-synthase, cathepsin L, glutathione S-transferase, NADH alone and the combination of nitroreductase and NQO1.
Determination of NIR-ASM specificity towards NQO1. The specificity towards NQO1 was investigated by incubating NIR-ASM (10 μm) with various biologically relevant analytes such as glutathione (GSH, 1 mM), aldehyde dehydrogenase 1 (ALDH1A1, 2.5 μg/mL), gamma-glutamyl transferase (GGT, 10 U), glutathione peroxidase (GPx, 10 U), apurinic/apyrimidinic endonuclease (APE1, 10 U), cystathionine-β-synthase (CBS, 2 μg/mL), cathepsin L (CTSL, 2 μg/mL), glutathione S-transferase (GST-pi, 2 μg/mL), NADH (100 μM) alone and the combination of nitroreductase (NTR, 2 μg/mL) and NQO1 (2 μg/mL) for 30 min. Fluorescence spectra were analyzed to determine NIR-ASM specificity against NQO1.

Data set [4] concerns the target T1, NQO1. Briefly: Selectivity of NQ-DCP towards hNQO1 over other biomolecules/enzymes. It is filed as biochemical. The note with it: 10 μM probe, 30 min; GSH, ALDH1A1, GGT, GPx, APE1, CBS, CTSL, GST-pi, NTR, NADH. On the procedure:
Selectivity of NQ-DCP Towards hNQO1. The specificity of NQ-DCP probe towards hNQO1 was studied by determining its reactivity towards various biomolecules such as the glutathione (GSH, 1 mM), aldehyde dehydrogenase 1 (ALDH1A1, 2.5 μg/mL), gamma-glutamyl transferase (GGT, 10 U), glutathione Peroxidase (GPx, 10 U), apurinic/apyrimidinic endonuclease (APE1, 10 U), cystathionine-β-synthase (CBS, 2 μg/mL), cathepsin L (CTSL, 2 μg/mL), glutathione S-transferase (GST-pi, 2 μg/mL), nitroreductase (NTR, 2 μg/mL) and NADH (100 μM) alone or the combination of and NQO1 (2.5 μg/mL). […] To gain more insight into the specificity of the probe towards hNQO1, the enzyme was pre-treated with ES936 (0-100 nM), a well-known hNQO1 inhibitor [39] and then incubated with NQ-DCP.
Selectivity Evaluation. To study the interference, NQ-DCP was incubated with various biologically relevant analytes such as thiols and other enzymes for 30 min with or without the addition of 100 μM NADH. Fluorescence spectra were analyzed to determine NQ-DCP specificity against hNQO1.

T1 sequence (P15559 whole entry): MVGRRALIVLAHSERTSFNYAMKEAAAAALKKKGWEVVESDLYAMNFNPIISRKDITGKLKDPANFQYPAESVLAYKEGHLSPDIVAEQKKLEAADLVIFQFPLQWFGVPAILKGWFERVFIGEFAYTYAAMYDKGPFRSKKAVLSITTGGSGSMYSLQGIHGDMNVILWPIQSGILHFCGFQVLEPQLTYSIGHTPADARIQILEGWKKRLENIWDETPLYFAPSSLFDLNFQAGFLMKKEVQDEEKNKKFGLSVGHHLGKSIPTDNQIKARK

For `CC1=C(C)C(=O)C(C(C)(C)CC(=O)Nc2ccc(/C=C/C3=CC(=C(C#N)C#N)CC(C)(C)C3)cc2)=C(C)C1=O` [NIR-ASM, (E)-N-(4-(2-(3-(dicyanomethylene)-5,5-dimethylcyclohex-1-en-1-yl)vinyl)phenyl)-3-methyl-3-(2,4,5-trimethyl-3,6-dioxocyclohexa-1,4-dien-1-yl)butanamide], the cytotoxicity entry in data set [1] is recorded as “not toxic”. Besides, in data set [2] (100 μM NADH), the “enzyme concentration range in which fluorescence enhancement was directly proportional” value lay in the range of 0.125 to 2.5 µg/mL. Also, the “NQO1 detection limit (LOD)” value in data set [2] (LOD=3.3(Sy/S)) is 0.191 µg/mL. For the same compound, the “time to maximum emission at 646 nm” value in data set [2] (NQO1 2.5 μg/mL) stood at 30 min. In addition, in data set [2] (after reaction with NQO1), the Stokes shift was found to be 186 nm and the fluorescence emission band is on record as 646 nm. The absorption band in data set [2] (before addition of NQO1, PBS 0.1% BSA pH 7.4, 37° C.) was found to be 403 nm. Also, the absorption in data set [2] (upon addition of NQO1) worked out at 465 nm. For the same compound, the “selectivity for NQO1 over the other enzymes/substrates tested” value in data set [3] is recorded as “high selectivity”.
On to `CC1=C(C)C(=O)C(C(C)(C)CC(=O)Oc2ccc(/C=C/C3=CC(=C(C#N)C#N)CC(C)(C)C3)cc2)=C(C)C1=O` [NQ-DCP], for which, in data set [4], the “selectivity for hNQO1 over the other enzymes/substrates tested” value is on record as “high selectivity”.
